Laboratory results as given in patent US8604038B2, “Pyrrolidine derived beta 3 adrenergic receptor agonists” (Merck Sharp & Dohme Corp., priority 2009, dated 2013).

target: T1, human β3 adrenergic receptor (Homo sapiens, UniProt P13945); assay: Beta-3 agonist in vitro functional assay (cAMP production, LANCE, transfected CHO cells); format: cell-based; details: Table 1, CHO cells with cloned β3 receptor, ligands titrated 10^-10 M to 10^-5 M, read-out: Human β3 agonist functional activity
T1 construct: expressed in transfected cells; host or cells: CHO (Chinese hamster ovary) cells, stably transfected
Procedure: Functional Assay: For compounds in examples 1-50, cAMP production in response to ligand is measured according to Barton, et al. (1991, Agonist-induced desensitization of D2 dopamine receptors in human Y-79 retinoblastoma cells. Mol. Pharmacol. […]:650-658) modified as follows. The cAMP production is measured using a homogenous time-resolved fluorescence resonance energy transfer immunoassay (LANCE™, Perkin Elmer) according to the manufacture's instructions. Chinese hamster ovary (CHO) cells, stably transfected with the cloned β-adrenergic receptor (β1, β2 or β3) are harvested after 3 days of subculturing. Harvesting of cells is done with Enzyme-free Dissociation Media (Specialty Media). Cells are then counted and resuspended in assay buffer (Hank's Balanced salt solution supplemented with 5 mM HEPES, […]) containing a phosphodiesterase inhibitor (IBMX, 0.6 mM). The reaction is initiated by mixing 6,000 cells in 6 μL with 6 μL Alexa Fluor labeled cAMP antibody (LANCE™ kit) which is then added to an assay well containing 12 μL of compound (diluted in assay buffer to 2× final concentration). The reaction proceeds for 30 minutes at RT and is terminated by the addition of 24 ul detection buffer (LANCE™ kit). The assay plate is then incubated for 1 h at RT and time-resolved fluorescence measured on a Perkin Elmer Envision reader or equivalent. The unknown cAMP level is determined by comparing fluorescence levels to a cAMP standard curve.
The non-selective, full agonist β-adrenergic ligand isoproterenol is used at all three receptors to determine maximal stimulation. The human β3 adrenergic receptor (AR) selective ligand (S)-N-[4-[2-[[2-hydroxy-3-(4-hydroxyphenoxy)propyl]amino]ethyl]-phenyl]-4-iodobenzenesulfonamide is used as a control in all assays. […] The EC50 is defined as the concentration of compound that gives 50% activation of its own maximum. Data are analyzed using Microsoft Excel and Graphpad Prism or an internally developed data analysis software package.
The EC50 is defined as the concentration of compound that gives 50% activation of its own maximum. Functional antagonist assays are performed similar to described above; however, unknown ligands are titrated at β-adrenergic receptor subtypes 1 and 2 at a final concentration in the assay of 10^-12 M to 10^-5 M in the presence of 10^-9 M full agonist β-adrenergic ligand isoproterenol. The EC50 is defined as the concentration of compound that gives 50% inhibition of the full agonist response. Data are analyzed using Microsoft Excel and Graphpad Prism or an internally developed data analysis software package.

T1 sequence (P13945 whole entry): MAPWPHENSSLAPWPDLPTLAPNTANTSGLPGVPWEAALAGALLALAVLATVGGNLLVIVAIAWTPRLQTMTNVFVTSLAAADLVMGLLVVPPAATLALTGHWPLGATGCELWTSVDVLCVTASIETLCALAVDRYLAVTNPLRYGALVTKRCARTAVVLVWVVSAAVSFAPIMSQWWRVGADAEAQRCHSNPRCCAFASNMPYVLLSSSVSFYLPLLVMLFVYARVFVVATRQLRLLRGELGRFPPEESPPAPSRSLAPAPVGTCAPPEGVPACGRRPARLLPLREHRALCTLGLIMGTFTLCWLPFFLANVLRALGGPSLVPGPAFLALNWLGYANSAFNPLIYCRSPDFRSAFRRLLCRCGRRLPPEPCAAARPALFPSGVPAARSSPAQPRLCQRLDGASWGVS

SMILES	EC50 [nM]
O=C(NCc1cc(Cl)ccn1)c1ccc(C[C@@H]2CC[C@H]([C@H](O)c3ccccc3)N2)cc1 [Example 5]	10 to 99.9
O=C(NCc1nccc2ccccc12)c1ccc(C[C@@H]2CC[C@H]([C@H](O)c3cccnc3)N2)cc1 [Example 43]	10 to 99.9
Nc1nc(CNC(=O)c2ccc(C[C@@H]3CC[C@H]([C@H](O)c4ccccc4)N3)cc2)cs1 [Example 25]	10 to 99.9
O=C(NCc1cccnn1)c1ccc(C[C@@H]2CC[C@H]([C@H](O)c3ccccc3)N2)cc1 [Example 8]	100 to 999
O=C(NCc1nc2ccncc2[nH]1)c1ccc(C[C@@H]2CC[C@H]([C@H](O)c3ccccc3)N2)cc1 [Example 38]	1 to 9.9
Cc1ccnc(CNC(=O)c2ccc(C[C@@H]3CC[C@H]([C@H](O)c4ccccc4)N3)cc2)n1 [Example 18]	10 to 99.9
O=C(NCc1nc(C(F)(F)F)cc(=O)[nH]1)c1ccc(C[C@@H]2CC[C@H]([C@H](O)c3ccccc3)N2)cc1 [Example 28]	10 to 99.9
Cn1c(CNC(=O)c2ccc(C[C@@H]3CC[C@H]([C@H](O)c4ccccc4)N3)cc2)nc2ccccc21 [Example 35]	10 to 99.9
O=C(NCc1nc2ccccc2[nH]1)c1ccc(C[C@@H]2CC[C@H]([C@H](O)c3ccccc3)N2)cc1 [Example 34]	10 to 99.9
Nc1nc(CNC(=O)c2ccc(C[C@@H]3CC[C@H]([C@H](O)c4cccnc4)N3)cc2)cs1 [Example 26]	10 to 99.9
O=C(NCc1cc(-c2ccccc2)no1)c1ccc(C[C@@H]2CC[C@H]([C@H](O)c3ccc[n+]([O-])c3)N2)cc1 [Example 31]	100 to 999
COC(=O)c1ccnc(CNC(=O)c2ccc(C[C@@H]3CC[C@H]([C@H](O)c4ccccc4)N3)cc2)c1 [Example 7]	10 to 99.9
O=C(NCc1cc(-c2ccccc2)ncn1)c1ccc(C[C@@H]2CC[C@H]([C@H](O)c3ccccc3)N2)cc1 [Example 23]	10 to 99.9
O=C(NCc1cc(-c2ccccc2)no1)c1ccc(C[C@@H]2CC[C@H]([C@H](O)c3ccccc3)N2)cc1 [Example 29]	10 to 99.9
Cc1cccnc1CNC(=O)c1ccc(C[C@@H]2CC[C@H]([C@H](O)c3ccccc3)N2)cc1 [Example 13]	10 to 99.9
O=C(NCc1ccc2ccccc2n1)c1ccc(C[C@@H]2CC[C@H]([C@H](O)c3ccccc3)N2)cc1 [Example 44]	10 to 99.9
O=C(NCc1nc2ccncc2[nH]1)c1ccc(C[C@@H]2CC[C@H]([C@H](O)c3cccnc3)N2)cc1 [Example 39]	10 to 99.9
O=C(NCc1nccc(-c2ccccc2)n1)c1ccc(C[C@@H]2CC[C@H]([C@H](O)c3ccccc3)N2)cc1 [Example 21]	10 to 99.9
Cc1ccnc(CNC(=O)c2ccc(C[C@@H]3CC[C@H]([C@H](O)c4ccccc4)N3)cc2)c1 [Example 19]	10 to 99.9

same assay, conditions: Table 3, CHO cells with cloned β3 receptor, ligands titrated 10^-12 M to 10^-5 M, read-out: Human β3 agonist functional activity

SMILES	EC50 [nM]
Cc1ccc(OCCN(C)C(=O)c2ccc(C[C@@H]3CC[C@H]([C@H](O)c4ccccc4)N3)cc2)cc1 [Example 120]	1000 to 3000
Cc1cnc(CN(CC(C)C)C(=O)c2ccc(C[C@@H]3CC[C@H]([C@H](O)c4ccccc4)N3)cc2)s1 [Example 116]	10 to 99.9
CN(Cc1ccc2nccnc2c1)C(=O)c1ccc(C[C@@H]2CC[C@H]([C@H](O)c3ccccc3)N2)cc1 [Example 92]	10 to 99.9
CN(Cc1nc2ccccc2n1C)C(=O)c1ccc(C[C@@H]2CC[C@H]([C@H](O)c3ccccc3)N2)cc1 [Example 70]	100 to 999
CN(Cc1cc(-c2ccncc2)on1)C(=O)c1ccc(C[C@@H]2CC[C@H]([C@H](O)c3ccccc3)N2)cc1 [Example 107]	100 to 999
Cc1nccc(CN(C)C(=O)c2ccc(C[C@@H]3CC[C@H]([C@H](O)c4ccccc4)N3)cc2)n1 [Example 81]	10 to 99.9
CN(Cc1cnn(-c2ccccc2)c1)C(=O)c1ccc(C[C@@H]2CC[C@H]([C@H](O)c3ccccc3)N2)cc1 [Example 97]	10 to 99.9
Cc1cccn2cc(CN(C)C(=O)c3ccc(C[C@@H]4CC[C@H]([C@H](O)c5ccccc5)N4)cc3)nc12 [Example 126]	100 to 999
CN(C(=O)c1ccc(CC2CCC(C(O)c3ccccc3)N2)cc1)C(c1ccccn1)C1CC1 (mixture of isomers) [Example 96]	100 to 999
Cc1cccc(CN(C)C(=O)c2ccc(C[C@@H]3CC[C@H]([C@H](O)c4ccccc4)N3)cc2)n1 [Example 67]	10 to 99.9
CN(Cc1nnn(C)n1)C(=O)c1ccc(C[C@@H]2CC[C@H]([C@H](O)c3ccccc3)N2)cc1 [Example 72]	10 to 99.9
CN(Cc1ccncn1)C(=O)c1ccc(C[C@@H]2CC[C@H]([C@H](O)c3ccccc3)N2)cc1 [Example 79]	100 to 999
CN(Cc1nc2ccsc2c(=O)[nH]1)C(=O)c1ccc(C[C@@H]2CC[C@H]([C@H](O)c3ccccc3)N2)cc1 [Example 114]	1 to 9.9
CN(Cc1ncc[nH]1)C(=O)c1ccc(C[C@@H]2CC[C@H]([C@H](O)c3ccccc3)N2)cc1 [Example 113]	10 to 99.9
CN(Cc1cccnn1)C(=O)c1ccc(C[C@@H]2CC[C@H]([C@H](O)c3ccccc3)N2)cc1 [Example 55]	100 to 999
CN(Cc1cccnc1)C(=O)c1ccc(C[C@@H]2CC[C@H]([C@H](O)c3ccc(N)nc3)N2)cc1 [Example 59]	< 1

SMILES	EC50 [nM]
CCN(CCN)C(=O)c1ccc(C[C@@H]2CC[C@H]([C@H](O)c3ccccc3)N2)cc1 [Example 115]	100 to 999
CN(Cc1ccncc1)C(=O)c1ccc(C[C@@H]2CC[C@H]([C@H](O)c3ccccc3)N2)cc1 [Example 71]	100 to 999
CN(Cc1cnccn1)C(=O)c1ccc(C[C@@H]2CC[C@H]([C@H](O)c3ccccc3)N2)cc1 [Example 74]	10 to 99.9
CC(c1cccnc1)N(C)C(=O)c1ccc(C[C@@H]2CC[C@H]([C@H](O)c3ccccc3)N2)cc1 (stereo partly drawn) [Example 128]	1 to 9.9
CN(Cc1cc(Br)ccn1)C(=O)c1ccc(C[C@@H]2CC[C@H]([C@H](O)c3ccccc3)N2)cc1 [Example 57]	10 to 99.9
CN(Cc1nccn1C)C(=O)c1ccc(C[C@@H]2CC[C@H]([C@H](O)c3ccccc3)N2)cc1 [Example 76]	100 to 999
CN(Cc1cc2ccccc2cn1)C(=O)c1ccc(C[C@@H]2CC[C@H]([C@H](O)c3ccccc3)N2)cc1 [Example 52]	100 to 999
CN(Cc1noc(C2CC2)n1)C(=O)c1ccc(C[C@@H]2CC[C@H]([C@H](O)c3ccccc3)N2)cc1 [Example 112]	10 to 99.9
CN(Cc1cccc(N2CCCC2)n1)C(=O)c1ccc(C[C@@H]2CC[C@H]([C@H](O)c3ccccc3)N2)cc1 [Example 83]	100 to 999
CN(Cc1csc(N)n1)C(=O)c1ccc(C[C@@H]2CC[C@H]([C@H](O)c3ccccc3)N2)cc1 [Example 132]	100 to 999
O=C(c1ccc(C[C@@H]2CC[C@H]([C@H](O)c3ccccc3)N2)cc1)N(Cc1cccnn1)C1CC1 [Example 130]	100 to 999
CN(Cc1n[nH]c2c1CCCC2)C(=O)c1ccc(C[C@@H]2CC[C@H]([C@H](O)c3ccccc3)N2)cc1 [Example 85]	< 1
CN(Cc1ccc(Br)cn1)C(=O)c1ccc(C[C@@H]2CC[C@H]([C@H](O)c3ccccc3)N2)cc1 [Example 78]	10 to 99.9
CN(CC1CCCO1)C(=O)c1ccc(C[C@@H]2CC[C@H]([C@H](O)c3ccccc3)N2)cc1 (stereo partly drawn) [Example 127]	100 to 999
CN(CCC1CCOCC1)C(=O)c1ccc(C[C@@H]2CC[C@H]([C@H](O)c3ccccc3)N2)cc1 [Example 99]	100 to 999

same assay, conditions: given as a range, CHO cells with cloned β3 receptor, read-out: human Beta-3 agonist functional activity

SMILES	EC50 [nM]
CN(C)C(=O)c1ccc(C[C@@H]2CC[C@H](C(O)c3ccc(N)nc3)N2)cc1 (stereo partly drawn) [Example 133, 4-({(2S,5R)-5-[(6-aminopyridin-3-yl)(hydroxy)methyl]pyrrolidin-2-yl}methyl)-N,N-dimethylbenzamide]	10 to 99.9
O=C(NCc1nc(-c2ccccc2)n[nH]1)c1ccc(C[C@@H]2CC[C@H]([C@H](O)c3ccccc3)N2)cc1 [Example 1, 4-({(2S,5R)-5-[(R)-hydroxy(phenyl)methyl]pyrolidin-2-yl}methyl)-N-[(3-phenyl-1H-1,2,4-triazol-5-yl)methyl]benzamide]	1 to 9.9
CC(c1ccccn1)N(C)C(=O)c1ccc(CC2CC[C@H]([C@H](O)c3ccccc3)N2)cc1 (stereo partly drawn) [Example 137]	100 to 999
CN(Cc1cccnc1)C(=O)c1ccc(C[C@@H]2CC[C@H]([C@H](O)c3ccccc3)N2)cc1 [Example 51, 4-({(2S,5R)-5-[(R)-hydroxy(phenyl)methyl]pyrrolidin-2-yl}methyl)-N-methyl-N-(pyridine-3-ylmethyl)benzamide]	1 to 9.9
